Experimental findings from PubChem BioAssay AID1645848 are described below.

Converted amounts (≈) assume the structure as drawn.

For this data set the following is noted: buffer; pH 7.4; 6.0 h; 150.0 µM.
For orientation: solubility (kinetic) means solubility judged after dilution from a stock solution rather than from solid. Compound `O=C(Nc1nc(-c2ccccc2)cs1)c1ccncc1NS(=O)(=O)c1ccc(F)c(F)c1` showed a solubility (kinetic) of 49.8 µg/mL (≈ 105 µM). For the compound `COc1ccc(-c2nc3ccccc3c(=O)n2Cc2ccco2)cc1COc1ccc(NC(C)=O)cc1`, the solubility (kinetic) turned out to be 2.35 µg/mL (≈ 4.74 µM). This solubility kinetic is about 21-fold lower than that of the compound before.

`Cc1[nH]c2ccccc2c1CN1CCN(c2ccccn2)CC1` had a kinetic solubility of 34.4 µg/mL (≈ 112 µM). In turn, `Brc1ccccc1-c1nc(NCc2ccc(-c3cccnc3)cc2)c2ccccc2n1` displayed a kinetic solubility below 1 µg/mL.

`O=C(O)c1ccnc2cc(C(OCCN3CCCCC3)c3ccccc3Cl)[nH]c12` (stereo unspecified) came in with a solubility (kinetic) above 61 µg/mL. Under `CC(C)(C)C1CCc2c(sc(NC(=O)c3ccncc3)c2C(N)=O)C1` (stereo unspecified) stands below 1 µg/mL. `CCOC(=O)c1ccc(-c2ccc3ncnc(NCCc4cnc[nH]4)c3c2)o1` showed a kinetic solubility of 26.2 µg/mL (≈ 69.4 µM). On to `O=C(NCc1ccco1)c1nc2nc(-c3cccs3)cc(C(F)(F)F)n2n1`, for which the kinetic solubility came to 4.51 µg/mL (≈ 11.5 µM). Under `CCOc1ccc(CN2C(=O)c3ccccc3Sc3ccc(C(=O)NC4CCC(C)CC4)cc32)cc1` (stereo unspecified) stands 6.78 µg/mL (≈ 13.5 µM); under `O=C(Nc1ccc(S(=O)(=O)Nc2nccs2)cc1)c1cccnc1`, above 53 µg/mL; under `CCOc1ccc(CCNC(=O)c2ccc(Oc3ccccc3)cc2)cc1OCC`, below 1 µg/mL. Under `Clc1ccc(-c2nc(-c3ccc(Br)o3)no2)c(Cl)c1` stands below 1 µg/mL; under `NC(=O)C1CCN(c2nc(-c3cccc(F)c3)cs2)CC1`, above 45 µg/mL. In the case of `CCOc1cc(CNc2ccc(O)cc2)ccc1OCc1ccc(Cl)cc1`, the solubility (kinetic) was determined as 4.36 µg/mL (≈ 11.4 µM). As for `COc1cc(-c2nc(Nc3ccc(F)c(F)c3)c3ccccc3n2)cc(OC)n1`, the kinetic solubility was below 1 µg/mL.

`O=C1c2ccccc2C2=Nc3ccccc3SC(c3ccccc3F)C12` (stereo unspecified) came in with a solubility (kinetic) below 1 µg/mL.

Take `Cc1ccc(-c2csc(NC(=O)c3ccncc3NS(=O)(=O)c3ccc(C)cc3)n2)cc1`: the solubility (kinetic) was below 1 µg/mL. Under `CC(C(O)c1ccc(O)cc1)N1CCC(Cc2ccccc2)CC1` (stereo unspecified) stands above 48 µg/mL; under `O=C(Nc1ncc(-c2ccccc2)s1)c1ccc(-c2cccc([N+](=O)[O-])c2)o1`, below 1 µg/mL; under `CCOc1ccccc1N1CC(c2nc3ccccc3n2CCOc2ccc(C(C)(C)C)cc2)CC1=O` (stereo unspecified), below 1 µg/mL. `CC(=O)c1ccc(N2CCN(S(=O)(=O)c3cc4c(cc3Cl)NC(=O)C4)CC2)cc1`: the kinetic solubility was determined as 1.16 µg/mL (≈ 2.68 µM).

Compound `CCS(=O)(=O)c1cccc(C(=O)Nc2ccc(-c3nc4ccccc4s3)c(O)c2)c1` came in with a kinetic solubility below 1 µg/mL. Under `CN1C(=O)c2ccccc2[S@](=O)c2ccc(C(=O)NCc3ccc(Cl)cc3)cc21` stands 4.37 µg/mL (≈ 10.3 µM).

Take `C=CCc1cccc(CNc2ccc(S(=O)(=O)Nc3nccs3)cc2)c1O`: the solubility (kinetic) amounted to 23.1 µg/mL (≈ 57.5 µM).

In the case of `COCC(C)NCc1cc2ccc(OC)cc2nc1N1CCN(c2ccc(F)cc2)CC1` (stereo unspecified), the solubility (kinetic) was determined as 39.5 µg/mL (≈ 90.1 µM). `Cc1ccc(S(=O)(=O)Nc2cnccc2C(=O)Nc2ccc(-c3nc4ccccc4[nH]3)cc2)cc1`: the kinetic solubility is below 1 µg/mL. Under `Cn1c(=O)c2c(-c3ccc(Br)cc3)n(CCc3ccccc3)cc2n(C)c1=O` stands 14.7 µg/mL (≈ 33.5 µM). Under `Cc1cc(-c2nnc3n2CCCCC3)c(C)n1-c1ccc(C(C)(C)C)cc1` stands 20.9 µg/mL (≈ 57.6 µM); under `O=c1cc(-c2ccccc2)oc2cc(O)cc(O)c12`, below 1 µg/mL.

Turning to `Cc1ccc(S(=O)(=O)Nc2cc(C)ccc2C(=O)Nc2nc(-c3ccccc3)cs2)cc1`, the solubility (kinetic) was below 1 µg/mL.

With `Cc1cc(C)c(CNC(=O)c2nc(-c3cccc(CO)c3)cc3c2ccn3C)c(=O)[nH]1`, the kinetic solubility was 24.7 µg/mL (≈ 59.4 µM). Under `Cn1nnnc1Sc1ncnc2sc(-c3ccccc3)cc12` stands 0.088 µg/mL (≈ 0.27 µM); under `COC(=O)C1=COC(C)C2CN3CCc4c([nH]c5cc(OC)c(OC)cc45)C3CC12` (stereo unspecified), 46.9 µg/mL (≈ 114 µM); under `CC(C)(C)c1ccc(C(=O)N2CC(=O)Nc3ccc(F)cc3C2c2ccc(F)cc2)cc1` (stereo unspecified), below 1 µg/mL. `CCCS(=O)(=O)c1nc(NC2CC2)cc(-c2ccc3c(ccn3C3CC(C)(C)NC(C)(C)C3)c2)n1` yielded a solubility (kinetic) below 1 µg/mL.

As to `COc1cc(Nc2nc(-c3ccncc3)nc3ccccc23)ccc1NS(C)(=O)=O`, the kinetic solubility is below 1 µg/mL. Regarding `O=C1Nc2ccccc2/C1=C\c1cc(Br)c(O)c(Br)c1`, the solubility (kinetic) was above 58 µg/mL.

`CCOc1cc(F)c(CCNC(=O)c2cc3sccc3n2Cc2ccccc2)cc1OCC` gave a solubility (kinetic) below 1 µg/mL. Under `CCN1CCN(c2ccc(Nc3ccc(-c4ccc(C(N)=O)cc4)n4ncnc34)cc2)CC1` stands above 65 µg/mL; under `COc1ccc(C(=O)Nc2nc(-c3ccccc3)cs2)cc1NS(=O)(=O)c1ccc(C)cc1`, below 1 µg/mL; under `CNC(=O)Cn1cc(-c2ccc3c(c2)C(F)CC32NC(=O)N(CC(=O)N(Cc3ccc(F)cc3)[C@@H](C)C(F)(F)F)C2=O)cn1` (stereo partly specified), 22 µg/mL (≈ 35.5 µM). `Cc1cc(-c2nnc3n2CCCCC3)c(C)n1-c1ccncc1` came in with a kinetic solubility of 36 µg/mL (≈ 117 µM). Under `CCOc1ccc(CCNC(=O)c2cc3ccccc3n2Cc2ccc(Cl)c(F)c2)cc1OCC` stands below 1 µg/mL; under `COc1ccc2cc1Oc1ccc(cc1)C[C@@H]1c3c(cc(OC)c4c3Oc3cc5c(cc3O4)CCN[C@H]5C2)CCN1C`, below 1 µg/mL; under `Cc1ccc(S(=O)(=O)Nc2cnccc2C(=O)Nc2nc(-c3ccc(F)cc3)cs2)cc1`, below 1 µg/mL.

In turn, `CCN(CC)CCCNC(=O)c1oc2c(c1C)-c1nn(Cc3ccc(Cl)cc3)cc1CC2` displayed a kinetic solubility above 67 µg/mL. As to `O=C(NC1CCN(c2cc(-c3ccc(Cl)cc3)[nH]n2)C1)c1ccccc1` (stereo unspecified), the kinetic solubility is below 1 µg/mL. For the compound `CCS(=O)(=O)c1ncc(N(Cc2ccc(F)cc2)Cc2ccco2)c(C(=O)Nc2cc(C)ccc2C)n1`, the kinetic solubility was below 1 µg/mL. Under `Cc1nn(-c2ccccc2)c2nc(C3CC3)cc(C(=O)Nc3ccc(F)cc3)c12` stands below 1 µg/mL; under `CCOc1ccc(CCNC(=O)c2cc3cnccc3n2Cc2cccc(C)c2)cc1OCC`, above 68 µg/mL.

Turning to `O=C(c1ccc2ccccc2c1)N1CCN(c2ccc(O)cc2)CC1`, the solubility (kinetic) worked out at 27.5 µg/mL (≈ 82.7 µM). Under `Cc1ccccc1C(=O)N1CCc2cc(-c3nc(NC(=O)CC4CCCCC4)sc3C)ccc21` stands below 1 µg/mL; under `O=C(CCCc1ccc2cccnc2n1)NCc1cc(-c2ccc(F)c(C(F)(F)F)c2)no1`, 3.29 µg/mL (≈ 7.18 µM).

`Fc1ccc(Nc2nc(-c3ccncc3)cc3ccccc23)cc1F` came in with a solubility (kinetic) of 1.26 µg/mL (≈ 3.79 µM). Under `O=C(Cc1cccs1)NCc1nnc2ccc(-c3ccccc3)nn12` stands 22 µg/mL (≈ 63 µM); under `COc1cccc(CNc2ccc(S(=O)(=O)Nc3cccc4ccncc34)cc2)c1O`, below 1 µg/mL; under `COc1cc(-c2nc(-c3c(C)noc3C)cc3c2cc(C)n3CCN(C)C)ccn1`, above 90 µg/mL. For `Cc1ccc2oc3c(c(=O)c2c1)C(c1ccc(O)cc1)N(CCCN(C)C)C3=O` (stereo unspecified), the solubility (kinetic) is above 58 µg/mL. `COc1cccc(CNc2ccc(S(=O)(=O)Nc3cccc(N4CCNCC4)c3)cc2)c1O` gave a kinetic solubility of 51.1 µg/mL (≈ 109 µM). Under `CCn1cc(C(=O)O)c(=O)c2cnc(N3CCN(C(=S)Nc4ccccc4)CC3)nc21` stands above 65 µg/mL. Under `CC(=O)NCCNC[C@@H]1C=C(C)[C@H](Cc2nnc(-c3ccccc3)o2)C[C@H]1C(C)C` stands above 61 µg/mL; under `CN1CC=C(c2nc(Nc3ccc(F)c(F)c3)c3ccccc3n2)CC1`, 33.8 µg/mL (≈ 96 µM); under `N#CC1(c2ccc(NC(=O)c3cccnc3NCc3ccncc3)cc2)CCCC1`, below 1 µg/mL. Under `Cn1c(CN2CCCCC2)nc2cc(NC(=O)c3cccc(Br)c3)ccc21` stands above 63 µg/mL; under `O=C(Nc1ccccc1)C1CCN(c2nc(-c3ccc(Br)cc3)cs2)CC1`, 5.11 µg/mL (≈ 11.5 µM). `O=C(Nc1nc(-c2ccccc2)cs1)c1ccncc1NS(=O)(=O)c1ccccc1F`: the solubility (kinetic) turned out to be 38.8 µg/mL (≈ 85.4 µM).

In the case of `Cc1nc(Nc2n[nH]c3c2CN(C(=O)N[C@H](CN(C)C)c2ccccc2)C3(C)C)c2sccc2n1`, the kinetic solubility was above 72 µg/mL. `OCC(O)CCO/N=C1/C(c2c(O)[nH]c3ccccc23)=Nc2ccccc21` (stereo unspecified) returned a solubility (kinetic) below 1 µg/mL. In turn, `Fc1cc(Nc2nc(-c3ccncc3)nc3ccccc23)ccc1-c1cccnc1` yielded a kinetic solubility below 1 µg/mL.

`CCOc1ccc(CCNC(=O)c2cc3sccc3n2Cc2ccncc2)cc1OCC` showed a solubility (kinetic) of 4.18 µg/mL (≈ 9.31 µM). Compound `O=C(Nc1nc(-c2ccccc2)cs1)c1ccncc1NS(=O)(=O)c1ccc(F)cc1` gave a solubility (kinetic) of 45.8 µg/mL (≈ 101 µM). In the case of `CC[C@H](NC(=O)c1c(O)c(-c2ccccc2)nc2ccccc12)c1ccccc1`, the solubility (kinetic) turned out to be 31.7 µg/mL (≈ 82.8 µM).

`Cc1onc(-c2ccccc2)c1C(=O)Nc1nnc(COc2ccc(Cl)cc2)s1` returned a kinetic solubility below 1 µg/mL.

As for `COc1cccc(CNCCSc2nnnn2C)c1OCc1ccc(Cl)cc1Cl`, the kinetic solubility was found to be 16.6 µg/mL (≈ 36.4 µM). On to `Fc1cc(Nc2nc(-c3ccncc3)nc3ccccc23)ccc1-c1ccc(F)c(F)c1F`, for which the kinetic solubility is below 1 µg/mL. As to `O=C(CCCN1CCC(O)(c2ccc(Cl)cc2)CC1)c1ccc(F)cc1`, the kinetic solubility is 6.42 µg/mL (≈ 17.1 µM). Under `Cc1ccc(Cl)cc1NS(=O)(=O)c1cc2c(cc1F)NC(=O)CC2` stands 1.76 µg/mL (≈ 4.79 µM). Under `NC(=O)N1CCN(c2nc(-c3ccc(Br)cc3)cs2)CC1` stands 1.84 µg/mL (≈ 5.01 µM); under `CCc1ccc(NC(=O)c2[nH]c(C)c(C(C)=O)c2C)cc1S(=O)(=O)Nc1ccc(C#N)cc1`, 2.19 µg/mL (≈ 4.72 µM). Under `COc1ccnc(NC(=S)N2CCN(c3cccc(C(F)(F)F)n3)CC2)c1` stands below 1 µg/mL; under `Fc1cnc(-c2ccccc2C(F)F)nc1NCC1CCN(c2cnccn2)CC1`, below 1 µg/mL. For the compound `COc1ccc(NC(=O)c2c(C)cccc2C)cc1S(=O)(=O)Nc1ccc(Br)cc1`, the kinetic solubility is below 1 µg/mL. Under `O=C(Nc1nc(-c2ccccc2)cs1)c1ccncc1NS(=O)(=O)c1ccc2ccccc2c1` stands below 1 µg/mL. The compound `CC(C)Oc1ccc(CCNC(=O)c2cc3sccc3n2Cc2ccccc2)cc1OC(C)C` gave a kinetic solubility below 1 µg/mL. Under `CC(C)(C)OC(=O)N[C@@H](Cc1ccc(OS(=O)(=O)c2cccc3cnccc23)cc1)C(=O)N1CCCN(C(=O)OC(C)(C)C)CC1` stands below 1 µg/mL; under `CCOc1ccc(-c2nc(SCC(=O)Nc3ccc(C)c(C)c3)n3[nH]c(=O)cc3n2)cc1`, below 1 µg/mL.
